Experimental data taken from the supplement of paper PMC10307832.

Experiments:
Assay in all cases: relative viability (nuclei count vs DMSO), 5 days (fraction); higher = more cells survive
XMD13-2 + Foretinib = compound: C1CC1C(=O)NC2=NNC3=C2C=CC(=C3)C4=CC(=CC=C4)C(=O)NC5CC5 [XMD13-2] + COc1cc2c(Oc3ccc(NC(=O)C4(C(=O)Nc5ccc(F)cc5)CC4)cc3F)ccnc2cc1OCCCN1CCOCC1 [Foretinib] (partner 0.25 µM)
Procedure, shortened: (§1)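 Nuclei were stained with Hoechst during a one-step fixation (final 0.05% Triton X-100, 1% formaldehyde, 1 ug/ml Hoechst) carried out 5 days after dosing, then counted on 4× images. The cells, lung cancer lines in 1536-well plates, had been dosed by pin tool the day after seeding with one drug alone or a fixed anchor-drug dose plus five library-drug doses (not always all listed) in √10 steps. Relative viability is the nuclei count in treated wells divided by that in vehicle wells, and each value is the median of duplicate plates.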

XMD13-2 + Decitabine = compound: C1CC1C(=O)NC2=NNC3=C2C=CC(=C3)C4=CC(=CC=C4)C(=O)NC5CC5 [XMD13-2] + Nc1ncn([C@H]2C[C@H](O)[C@@H](CO)O2)c(=O)n1 [Decitabine] (partner 2 µM)
Procedure, shortened: as §1

ALW-II-49-7 + OSI-027 = compound: Cc1ccc(C(=O)Nc2cccc(C(F)(F)F)c2)cc1Nc1cncc(C(N)=O)c1 [ALW-II-49-7] + COc1cccc2cc(-c3nc([C@H]4CC[C@H](C(=O)O)CC4)n4ncnc(N)c34)[nH]c12 [OSI-027] (partner 0.5 µM)
Procedure, shortened: as §1

Dasatinib + Lapatinib = compound: Cc1nc(Nc2ncc(C(=O)Nc3c(C)cccc3Cl)s2)cc(N2CCN(CCO)CC2)n1 [Dasatinib] + CS(=O)(=O)CCNCc1ccc(-c2ccc3ncnc(Nc4ccc(OCc5cccc(F)c5)c(Cl)c4)c3c2)o1 [Lapatinib] (partner 2 µM)
Procedure, shortened: as §1

Cell Line	relative viability (XMD13-2 + Foretinib; first compound 0.05 µM)	relative viability (XMD13-2 + Foretinib; first compound 0.1581 µM)	relative viability (XMD13-2 + Foretinib; first compound 0.5 µM)	relative viability (XMD13-2 + Foretinib; first compound 1.581 µM)	relative viability (XMD13-2 + Foretinib; first compound 5 µM)	relative viability (XMD13-2 + Decitabine; first compound 0.05 µM)	relative viability (XMD13-2 + Decitabine; first compound 0.1581 µM)	relative viability (XMD13-2 + Decitabine; first compound 0.5 µM)	relative viability (XMD13-2 + Decitabine; first compound 1.581 µM)	relative viability (XMD13-2 + Decitabine; first compound 5 µM)	relative viability (ALW-II-49-7 + OSI-027; first compound 0.08 µM)	relative viability (ALW-II-49-7 + OSI-027; first compound 0.253 µM)	relative viability (ALW-II-49-7 + OSI-027; first compound 0.8 µM)	relative viability (ALW-II-49-7 + OSI-027; first compound 2.53 µM)	relative viability (ALW-II-49-7 + OSI-027; first compound 8 µM)	relative viability (Dasatinib + Lapatinib; first compound 0.005 µM)	relative viability (Dasatinib + Lapatinib; first compound 0.01581 µM)	relative viability (Dasatinib + Lapatinib; first compound 0.05 µM)	relative viability (Dasatinib + Lapatinib; first compound 0.1581 µM)	relative viability (Dasatinib + Lapatinib; first compound 0.5 µM)
COR-L 105	1.16	1.19	0.729	0.883	0.899	0.747	0.717	0.755	0.66	0.638	0.644	0.719	0.66	0.644	0.753	0.352	0.301	0.28	0.256	0.318
LCLC-97TM1	1.04	0.918	0.975	0.965	0.685	0.241	0.23	0.202	0.168	0.195	0.514	0.46	0.466	0.527	0.379	1.2	1.2	0.772	0.904	0.362
NCI-H520	0.876	0.754	0.536	0.637	0.402	0.531	0.506	0.534	0.549	0.442	0.258	0.249	0.25	0.242	0.262	0.729	0.447	0.464	0.228	0.21
NCI-H1993	0.838	0.689	0.775	0.785	0.507	0.625	0.552	0.663	0.632	0.669	0.486	0.521	0.535	0.601	0.521	0.761	0.771	0.776	0.731	0.737
NCI-H1437	1.2	1.25	1.25	1.24	1.27	0.604	0.569	0.541	0.55	0.578	0.835	0.744	0.751	0.877	0.75	0.785	0.784	0.809	0.752	0.218
LC-2-ad	1.07	1.07	0.987	0.789	0.807	0.797	0.728	0.828	0.79	0.712	0.733	0.843	0.783	0.73	0.771	0.648	0.876	0.952	0.699	0.186
HARA	1.1	0.854	0.834	1.01	0.616	0.654	0.558	0.584	0.613	0.492	0.547	0.441	0.298	0.387	0.442	0.851	0.701	0.505	0.201	0.137
NCI-H650	1.16	1.02	1.14	1.06	0.972	0.311	0.315	0.329	0.296	0.306	0.519	0.509	0.511	0.419	0.391	0.471	0.907	0.723	0.555	0.387
